Experimental data taken from patent publication US6303761A, “Triaminepentaacetic acid compound and paramagnetic metal complex prepared from using the compound as ligand” (Department of Health The Executive Yuan, Republic of China, priority 1999, dated 2001).
Where “and” joins values, the source holds several entries; their conditions need not be identical. Equal entries are not always repeated. Where two headings read alike, the source gives them in different places. Each block holds one compound with its values, some of them ahead of it.

Columns and labels:
[1] = Inner-sphere water molecules (Dy(III)-induced ^17 O-NMR chemical shift, X-ray, deduction); assay type: physicochemical
Method: The chemical shift (d.i.s.) of the Dy(III)-induced ^17 O is determined by ^17 O-NMR. The relationship between the Dy(III) complex concentration and d.i.s. is shown in equation (14)
d.i.s.=qΔ[Dy(ligand)n ](H2 O)q /[H2 O] (14)
The slope of equation (14) is qΔ/[H2 O], and q refers to the inner-sphere water molecule. […] It is known that Dy(III) can bind with eight water molecules at low concentration, and q is in a linear relationship with the slope.

[2] = cited from earlier work
pM value, Gd^3+ = details: pH 7.4, TL 1.1×10^-5, TM 1.0×10^-6 mol dm^-3
pM value, Ca^2+ = details: pH 7.4, TL 1.1×10^-5, TM 1.0×10^-6 mol dm^-3
pM value, Zn^2+ = details: pH 7.4, TL 1.1×10^-5, TM 1.0×10^-6 mol dm^-3
pM value, Cu^2+ = details: pH 7.4, TL 1.1×10^-5, TM 1.0×10^-6 mol dm^-3
[3] = cited from earlier work; for LD50: in vivo
[4] = Protonation constants of the organic ligands (potentiometric titration, program PKAS); assay type: physicochemical; details: for pKa: aqueous me4nno3, 25.0 ± 0.1° C., aqueous Me4 NNO3, I = 0.10 mol dm^-3
Method: The ionic strength was 0.10 mol dm^-3 Me4 NNO3 ((CH3)4 NNO3). […] The titrant used was 0.1 mol dm^-3 NaOH with a titration amount of 0.005 ml/time.

[5] = Thermodynamic and conditional stability constants of the Ca^2+ complexes (potentiometric titration, program BEST); assay type: physicochemical; details: 25.0 ± 0.1° C., aqueous Me4 NNO3, I = 0.10 mol dm^-3
Method: (§1) The pH electrode was calibrated using two standard buffer solutions with pH 7.0±0.05 and pH 4.0±0.05 respectively. The ionic strength was 0.10 mol dm^-3 Me4 NNO3 ((CH3)4 NNO3). […] The titrant used was 0.1 mol dm^-3 NaOH with a titration amount of 0.005 ml/time.
(§2) (1) Direct Potentiometric Titration: The metal ion and ligand is mixed in 1:1 molar ratio.
(§3) (2) Ligand-ligand Competition Titration: The metal ion, ligand, and EDTA is mixed in 1:1:1 molar ratio.
(§4) M: metal ion, L: organic ligand, ML: metal complex The conditional stability constant is defined by equation (2): [formula]
(§5) The relationship between the conditional stability constant and the thermodynamic stability constant is defined by equation (3): [formula]
(§6) K2^H [H^+ ]^2 + . . . }^-1 =KthermαH

[6] = Thermodynamic and conditional stability constants of the Zn^2+ complexes (potentiometric titration, program BEST); assay type: physicochemical; details: 25.0 ± 0.1° C., aqueous Me4 NNO3, I = 0.10 mol dm^-3
Method: as §1, §2, §3, §4, §5, §6

[7] = Thermodynamic and conditional stability constants of the Cu^2+ complexes (potentiometric titration, program BEST); assay type: physicochemical; details: 25.0 ± 0.1° C., aqueous Me4 NNO3, I = 0.10 mol dm^-3
Method: as §1, §2, §3, §4, §5, §6

[8] = Species distribution of the ligands at various pH values (SPE, SPEPLOT); assay type: physicochemical; details: 7.0×10^-3 mol dm^-3 system
Source text: The average difference between observed and calculated -log[H^+ ] was <0.04 throughout all titrations.
When pH=7.0, the concentration of [H2 L]^3- is the maximum (97.5%). In the pH 3-5 range, the dominant species is the third protonated species [H3 L]^2-. When pH=3.7, the concentration of [H3 L]^2- is the maximum (87.75%). […] When pH=9.8, the concentration of [HL]^4- is the maximum (77.5%). In the pH 2-3 range, the dominant species is the fourth protonated species [H4 L]^-. When pH=2.3, the concentration of [H4 L]^- is the maximum (60.9%). In the pH range greater than 11, the dominant species is the deprotonated species [L]^5-.
When pH=2.7, the concentration of [H4 L]^- is the maximum (55.9%). In the pH 3.5-7 range, the dominant species is the third protonated species [H3 L]^2-. When pH=5, the concentration of [H3 L]^2- is the maximum (97.7%). In the pH 7-9 range, the dominant species is the second protonated species [H2 L]^3-. When pH=8.1, the concentration of [H2 L]^3- is the maximum (86.5%). […] When pH=9.9, the concentration of [HL]^4- is the maximum (71.6%). In the pH range greater than 12, the dominant species is the deprotonated species [L]^5-. In the pH range less than 2, the dominant species is the totally protonated species [H5 L].
When pH=2.8, the concentration of [H4 L]^- is the maximum (45.9%). In the pH 3.5-7.5 range, the dominant species is the third protonated species [H3 L]^2-. When pH=5.2, the concentration of [H3 L]^2- is the maximum (99.0%). In the pH 8-9.5 range, the dominant species is the second protonated species [H2 L]^3-. When pH=8.6, the concentration of [H2 L]^3- is the maximum (78.8%). In the pH 9.5-11 range, the dominant species is the first protonated species [HL]^4-. When pH=10.1, the concentration of [HL]^4- is the maximum (67.2%). In the pH range greater than 12, the dominant species is the deprotonated species [L]^5-. In the pH range less than 2, the dominant species is the totally protonated species [H5 L].

[9] = Selectivity constant of the ligand for Gd^3+ over Ca^2+; assay type: physicochemical
[10] = assay type: physicochemical; details: pH 7.4, plasma concentrations of Ca^2+, Cu^2+ and Zn^2+
[11] = Relaxivity R1 and its pH dependence; details: pH 6.3 ± 0.1
[12] = read-out: first protonation constant log K1^H, [HL]/[L][H]
[13] = read-out: fourth protonation constant log K4^H, [H4 L]/[H3 L][H]
[14] = read-out: second protonation constant log K2^H, [H2 L]/[HL][H]
[15] = read-out: third protonation constant log K3^H, [H3 L]/[H2 L][H]
[16] = 25.0 ± 0.1° C., aqueous Me4 NNO3, I = 0.10 mol dm^-3

- slope of d.i.s. versus Dy(III) complex concentration ([1]; ^17 O-NMR, FIG. 11): -445.6
Compound: [Cl][Dy]([Cl])[Cl] [DyCl3]

Compound: O=C(O)CN1CCCN(CC(=O)O)CCN(CC(=O)O)CCN(CC(=O)O)CCN(CC(=O)O)CCCN(CC(=O)O)CCN(CC(=O)O)CCN(CC(=O)O)CC1 [H8 HEC, 1,4,7,10,14,17,20,23-octaazacyclohexacosane-1,4,7,10,14,17,20,23-octaacetic acid]
- water solubility of the bimetallic lanthanide complex [2]: higher water solubility

Compound: O=C(O)CN(CCN(CC(=O)O)CC(=O)O)CCN(CC(=O)O)CC(=O)O [DTPA, diethylenetriaminepentaacetic acid, reference compound]
- conditional stability constant log KGdL' (pH 7.4): 18.14
- pM (Gd^3+) (pM value, Gd^3+): 17.14
- pM (Ca^2+) (pM value, Ca^2+): 5.45
- pM (Zn^2+) (pM value, Zn^2+): 13.39
- pM (Cu^2+) (pM value, Cu^2+): 16.06

Compound: [Cl][Gd]([Cl])[Cl] [GdCl3, gadolinium chloride]
- LD50, intravenous, animal ([3]; intravenously injected to animal bodies): 0.3 to 0.5 mmol/kg

- basicity, Σ PKa [4]: 30.90
- pKa [4, 12]: 10.7
- pKa [4, 13]: 3.04
- pKa [4, 14]: 9.46
- pKa [4, 15]: 7.71
- log K [CaHL]/[CaL][H] [5]: 8.2
- log K [CaL]/[Ca][L] [5]: 13.48
- log K [ZnHL]/[ZnL][H] [6]: 4.7
- log K [ZnL]/[Zn][L] [6]: 19.91
- log K [CuHL]/[CuL][H] [7]: 9.5
- log K [CuL]/[Cu][L] [7]: 17.33
- maximum concentration of first protonated species [HL]^4- [8]: 67.2%
- maximum concentration of fourth protonated species [H4 L]^- [8]: 45.9%
- maximum concentration of second protonated species [H2 L]^3- [8]: 78.8%
- maximum concentration of third protonated species [H3 L]^2- [8]: 99.0%
- pH of maximum concentration of [H2 L]^3- [8]: 8.6 pH
- pH of maximum concentration of [H3 L]^2- [8]: 5.2 pH
- pH of maximum concentration of [H4 L]^- [8]: 2.8 pH
- pH of maximum concentration of [HL]^4- [8]: 10.1 pH
- pH range in which [H2 L]^3- is dominant [8]: 8-9.5 pH
- pH range in which [H3 L]^2- is dominant [8]: 3.5-7.5 pH
- pH range in which [H4 L]^- is dominant [8]: 2.5-3.5 pH
- pH range in which [HL]^4- is dominant [8]: 9.5-11 pH
- pH range in which deprotonated species [L]^5- is dominant [8]: greater than 12 pH
- pH range in which totally protonated species [H5 L] is dominant [8]: less than 2 pH
- pM (Ca^2+) (pM value, Ca^2+): 7.64
- pM (Zn^2+) (pM value, Zn^2+): 13.08
- pM (Cu^2+) (pM value, Cu^2+): 12.63
Compound: O=C(O)CN(CCCCN(CC(=O)O)CC(=O)O)CCCN(CC(=O)O)CC(=O)O [TTEA, 3,7,12-tri(carboxymethyl)-3,7,12-triazatetradecanedioic acid]
- complexation with metal ions, in words: very difficult to complex with metal ions

Compound: O=C(O)CN(CCCN(CC(=O)O)CC(=O)O)CCCN(CC(=O)O)CC(=O)O [TTRA, 3,7,11-tri(carboxymethyl)-3,7,11-triazatridecanedioic acid]
- basicity, Σ PKa [4]: 29.85
- pKa [4, 12]: 10.6
- pKa [4, 13]: 3.1
- pKa [4, 14]: 9.12
- pKa [4, 15]: 7
- log K [CaHL]/[CaL][H] [5]: 8.02
- log K [CaL]/[Ca][L] [5]: 13.52
- log K [ZnHL]/[ZnL][H] [6]: 4.15
- log K [ZnL]/[Zn][L] [6]: 19.37
- log K [CuHL]/[CuL][H] [7]: 8.68
- log K [CuL]/[Cu][L] [7]: 17.92
- selectivity constant log K(Gd/Ca) [9]: 2.37
- modified selectivity constant log K sel' [10]: 2.64
- maximum concentration of first protonated species [HL]^4- [8]: 71.6%
- maximum concentration of fourth protonated species [H4 L]^- [8]: 55.9%
- maximum concentration of second protonated species [H2 L]^3- [8]: 86.5%
- maximum concentration of third protonated species [H3 L]^2- [8]: 97.7%
- pH of maximum concentration of [H2 L]^3- [8]: 8.1 pH
- pH of maximum concentration of [H3 L]^2- [8]: 5 pH
- pH of maximum concentration of [H4 L]^- [8]: 2.7 pH
- pH of maximum concentration of [HL]^4- [8]: 9.9 pH
- pH range in which [H2 L]^3- is dominant [8]: 7-9 pH
- pH range in which [H3 L]^2- is dominant [8]: 3.5-7 pH
- pH range in which [H4 L]^- is dominant [8]: 2-3.5 pH
- pH range in which [HL]^4- is dominant [8]: 9.5-10.5 pH
- pH range in which deprotonated species [L]^5- is dominant [8]: greater than 12 pH
- pH range in which totally protonated species [H5 L] is dominant [8]: less than 2 pH
- log K [GdHL]/[GdL][H] [16]: 5.95
- log K [GdL]/[Gd][L] [16]: 15.89
- conditional stability constant log KGdL' (pH 7.4): 10.93
- pM (Gd^3+) (pM value, Gd^3+): 9.80
- pM (Ca^2+) (pM value, Ca^2+): 8.20
- pM (Zn^2+) (pM value, Zn^2+): 13.67
- pM (Cu^2+) (pM value, Cu^2+): 13.12

Compound: O=C(O)CN1CCN(CC(=O)O)CCN(CC(=O)O)CCN(CC(=O)O)CCN(CC(=O)O)CCN(CC(=O)O)CCN(CC(=O)O)CCN(CC(=O)O)CC1 [H8 OTEC, 1,4,7,10,13,16,19,22-octaazacyclotetracosane-1,4,7,10,13,16,19,22-octaacetic acid]
- water solubility of the bimetallic lanthanide complex [2]: higher water solubility

Compound: N,N-bis(2-pyridylmethyl)diethylenetriamine-N,N',N"-triacetate-gadolinium(III) [[Gd(DTPA-BP)]]
- LD50 [3]: 3.2 mmol/kg

- q (inner-sphere water) ([1]; Dy(III)-induced ^17 O-NMR shift): 0.8
- inner-sphere water molecules ([1]; ^17 O-NMR): only one
Compound: O=C([O-])CN1CCN(CC(=O)[O-])CCN(CC(=O)[O-])CCN(CC(=O)[O-])CC1.[Dy+3] [[Dy(DOTA)]^-]

Compound: CNC(=O)CN(CCN(CCN(CC(=O)[O-])CC(=O)NC)CC(=O)[O-])CC(=O)[O-].[Gd+3] [[Gd(DTPA-BMA)], diethylenetriamine pentaacetic acid bis(methylamide)-gadolinium(III)]
- modified selectivity constant log K sel' [10]: 9.03
- inner-sphere water molecule by X-ray single crystal analysis ([1]; X-ray single crystal analysis): one
- conditional stability constant (log Kcond) (pH 4.0): 11.25
- stability constant under physiological conditions (pH 7.4) (pH 7.4): 16.95
- LD50 [3]: 14.8 mmol/kg
- Relaxivity R1 [11]: 3.74 dm^3 mmol^-1 s^-1 and 3.74 ± 0.05 dm^3 mmol^-1 s^-1
